Laboratory results: the supplement of paper PMC10307832

Assays:
[1] = compound: O=C(c1cc(Cc2n[nH]c(=O)c3ccccc23)ccc1F)N1CCN(C(=O)C2CC2)CC1 [Olaparib]; assay: relative viability (nuclei count vs DMSO), 5 days (fraction); higher = more cells survive
Procedure, shortened: (§1)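 On vehicle-anchored 1536-well plates, lung cancer cell lines held overnight at 37 °C were pinned with five library-drug doses (not always all listed) spaced by √10. With no medium change over 5 days, they were then fixed, permeabilised and Hoechst-stained in one step and imaged at 4×. MetaXpress counted nuclei, and viability is the median across plates of treated-well over vehicle-well nuclei. Acceptance needed control CV below 25% and at least one doubling.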

[2] = compound: C[C@@H](Oc1cc(-c2cnn(C3CCNCC3)c2)cnc1N)c1c(Cl)ccc(F)c1Cl [Crizotinib]; assay: as above
Procedure, shortened: as §1

Row | Cell Line | relative viability ([1]; 0.08 µM) | relative viability ([1]; 0.253 µM) | relative viability ([1]; 2.53 µM) | relative viability ([1]; 8 µM) | relative viability ([1]; 8 µM, anchor plate) | relative viability ([2]; 0.01 µM) | relative viability ([2]; 0.03162 µM) | relative viability ([2]; 0.1 µM) | relative viability ([2]; 1 µM) | relative viability ([2]; 1 µM, anchor plate) | relative viability ([2]; 0.3162 µM)
1 | NCI-H441 | 1.13 | 1 | 0.942 | 0.76 | 0.525 | 0.99 | 0.941 | 0.947 | 1.02 | 0.726 | –
2 | ABC-1 | 1.15 | 0.882 | 0.863 | 0.932 | 0.847 | 0.845 | 0.885 | 0.995 | 0.982 | 1.18 | 0.878
3 | NCI-H2170 | 0.973 | 0.875 | 0.971 | 0.915 | 0.599 | – | 0.985 | 0.977 | 1.01 | 1.2 | 0.928
4 | NCI-H1944 | 0.921 | 0.806 | 0.656 | 0.646 | 0.419 | 0.879 | 0.992 | 0.907 | 0.893 | 1.1 | 1.02
5 | PC-3 [JPC-3] | 1.06 | 0.907 | 1.12 | 0.989 | 1.1 | 0.978 | 1.04 | 1.15 | 0.961 | 0.97 | 0.992
6 | NCI-H1648 | 0.956 | 0.908 | – | 1.2 | 0.818 | 0.742 | 1.33 | 0.651 | 1.1 | – | 0.958
7 | NCI-H1975 | 0.985 | 0.919 | 0.912 | 0.901 | 0.789 | 0.884 | 0.992 | 0.967 | 1.02 | 0.979 | 0.921
8 | NCI-H650 | 1.13 | 0.872 | 0.801 | 0.744 | 0.378 | 1.07 | 0.97 | 1.13 | 1.03 | 0.705 | 0.697
9 | NCI-H1623 | 1.07 | 0.987 | 0.917 | 0.791 | – | 0.891 | 1.01 | 0.915 | 0.891 | – | 0.89
10 | NCI-H1755 | 1.08 | 0.89 | 1.05 | 0.939 | 0.881 | 0.943 | 0.987 | – | 1 | 0.863 | 0.944
11 | NCI-H1666 | 0.985 | 0.916 | 0.821 | 0.838 | 0.738 | 0.952 | 1.02 | 0.985 | 0.987 | 1.04 | 0.971
12 | NCI-H1792 | 0.923 | 0.725 | 0.773 | 0.605 | 0.419 | 0.886 | 1.01 | 1.09 | 0.909 | 0.997 | –
13 | CAL-12T | 1.21 | 0.966 | 0.976 | 0.888 | 0.706 | 0.917 | 0.973 | 0.974 | 0.981 | 0.683 | 0.837
14 | EPLC-272H | 1.17 | 0.889 | 0.968 | 0.878 | 0.832 | 0.883 | 0.932 | 0.937 | 0.955 | 0.912 | 0.778
15 | IA-LM | 1.04 | 0.889 | 0.958 | 0.79 | 0.853 | 0.972 | 0.959 | 1.03 | 0.888 | 0.79 | 0.872
16 | PC-14 | 1.14 | 0.849 | 0.954 | 0.682 | 0.285 | 0.92 | 1.01 | 1.02 | 0.986 | – | 0.963
17 | NCI-H1703 | 1.1 | 0.826 | 0.983 | 0.974 | 0.453 | 0.794 | 1.08 | 0.918 | 1.14 | 0.728 | 0.968
18 | NCI-H1437 | 1.02 | 0.873 | 0.927 | 0.814 | 0.617 | 0.951 | 1.03 | 0.996 | 1.08 | – | 0.884
19 | NCI-H358 | 0.969 | 0.894 | 0.934 | 0.849 | 0.63 | 0.89 | 0.963 | 0.902 | 0.949 | 0.574 | 0.868
20 | LK-2 | 1.19 | 0.896 | 1.09 | 1.01 | 0.803 | 0.972 | 0.87 | 0.943 | – | – | 1.03
21 | H3255 | 1.01 | 0.869 | 1.05 | 0.924 | 0.579 | 0.963 | 0.993 | 0.991 | 1.03 | 0.934 | 0.911
22 | NCI-H1355 | 1.02 | 0.962 | 0.981 | 0.91 | 0.754 | 0.983 | 1.01 | 1.05 | 0.981 | 1.05 | 0.797
23 | LCLC-103H | 1.04 | 0.893 | 1 | 0.862 | 0.749 | 0.906 | 1.02 | 1.07 | 1 | 1.01 | 0.991
24 | NCI-H838 | 1.02 | 0.903 | 0.955 | 0.945 | 0.767 | 0.86 | – | 0.972 | 0.928 | 0.852 | 0.888
25 | Calu-6 | 1.13 | 0.936 | 0.937 | 0.789 | 0.584 | 0.986 | 1.03 | – | 1.01 | 0.768 | 0.957

Row | Cell Line | relative viability ([1]; 0.08 µM) | relative viability ([1]; 0.253 µM) | relative viability ([1]; 2.53 µM) | relative viability ([1]; 8 µM) | relative viability ([1]; 8 µM, anchor plate) | relative viability ([2]; 0.01 µM) | relative viability ([2]; 0.03162 µM) | relative viability ([2]; 0.1 µM) | relative viability ([2]; 1 µM) | relative viability ([2]; 1 µM, anchor plate) | relative viability ([2]; 0.3162 µM)
26 | BEN | 0.948 | 0.775 | 1.01 | 1.03 | 1.06 | 0.867 | 0.974 | 0.886 | 1.02 | 0.86 | 0.807
27 | NCI-H1651 | 0.934 | 0.902 | 0.755 | 0.494 | 0.188 | 0.954 | 0.994 | 0.938 | 1.08 | 0.884 | 0.991
28 | NCI-H2087 | 1.31 | 0.929 | 0.944 | 0.662 | 0.601 | 0.871 | 0.982 | 1.22 | 1.03 | 0.811 | 0.788
29 | NCI-H520 | 1.02 | 0.856 | 0.85 | 0.609 | 0.347 | 0.895 | 0.897 | 0.894 | 0.915 | 0.764 | 0.836
30 | NCI-H460 | 1.08 | 0.915 | 0.895 | 0.657 | 0.441 | 0.961 | 0.999 | 0.996 | 1.03 | 0.905 | 0.991
31 | SK-MES-1 | 1.09 | 0.892 | 0.96 | 0.776 | 0.731 | 0.951 | 0.999 | 1.02 | 0.967 | 0.991 | 0.97
32 | NCI-H661 | 1.02 | 0.924 | 0.925 | 0.836 | 0.753 | 0.933 | 0.95 | 0.945 | 1 | 0.993 | 1.06
33 | NCI-H1993 | 0.909 | 0.956 | 0.978 | 1.01 | 1.12 | 0.859 | 0.978 | 0.807 | 0.753 | 0.872 | 0.798
34 | NCI-H23 | 1.23 | 0.84 | 0.804 | 0.517 | 0.344 | 0.808 | 1.1 | 1.04 | 0.904 | 0.546 | –
35 | LCLC-97TM1 | 1.02 | 0.938 | 0.904 | 0.913 | 0.374 | 0.902 | 1.1 | 1 | 0.993 | 0.338 | 0.727
36 | NCI-H1915 | 1.02 | 0.892 | 0.779 | 0.559 | 0.269 | – | 0.99 | 1.02 | 1.02 | 0.908 | –
37 | NCI-H2342 | 0.974 | 0.951 | 0.936 | 0.941 | 0.452 | 0.891 | 0.999 | – | 0.882 | – | 0.867
38 | LOU-NH91 | 1.16 | 0.943 | 1.01 | 0.962 | 0.914 | 0.945 | 0.905 | 1.09 | 0.985 | 0.729 | 0.949
39 | EKVX | 1.03 | 0.885 | 0.969 | 1.03 | 0.884 | 0.969 | 0.941 | 0.933 | 0.982 | 0.967 | 0.847
40 | SK-LU-1 | 1.13 | 0.906 | 0.926 | 0.735 | 0.44 | 1.06 | 1.07 | 1.02 | 1.08 | 0.852 | 1.05
41 | A549 | 1.13 | 0.875 | 0.898 | 0.681 | 0.361 | 0.963 | 1.03 | 0.948 | 0.987 | 0.755 | 1.04
42 | LXF-289 | 1.12 | 0.979 | 1.1 | 1.03 | 1.07 | 0.967 | 1.03 | 1.08 | 1.01 | 0.809 | 0.844
43 | NCI-H2009 | 1.07 | 0.959 | 0.94 | 0.9 | 0.679 | 0.953 | 1 | 1.05 | 1 | 1.04 | 0.986
44 | HCC-827 | 0.999 | 0.989 | 0.962 | 0.966 | 0.61 | 0.985 | 1.03 | 1.03 | 1.03 | – | 0.901
45 | NCI-H3122 | 1 | 0.966 | 0.946 | 0.865 | 0.607 | 0.944 | 0.988 | 1.02 | 0.798 | 0.275 | 0.864
46 | NCI-H2126 | 1.07 | 0.984 | 0.982 | 1.01 | 0.907 | 0.934 | 1.02 | 0.959 | 0.993 | – | 0.914
47 | HARA | 1.14 | 0.852 | 0.804 | 0.811 | 0.788 | 0.796 | – | 1.03 | 1.02 | 1.04 | 0.779
48 | LC-2-ad | 1.09 | 0.89 | 0.943 | 0.866 | 0.697 | 0.921 | 1.02 | 1.02 | – | 0.458 | –
49 | UMC-11 | 1.03 | 0.894 | 0.758 | 0.492 | 0.373 | 0.898 | 0.972 | 0.91 | 1.01 | 0.606 | 0.636
